Converted amounts (≈) assume the structure as drawn. Where two headings read alike, the source gives them in different places.
Experiments:
C. albicans SC5314 = test: MIC, CLSI M27-S4 broth dilution, strain SC5314; format: cell-based, Candida albicans; settings: 48 hours
Method: The susceptibilities of the SC5314 and CA14C. albicans (azole sensitive) strains to all novel azole derivatives (5, 7 and 12) were determined (Table 3) using the standardized CLSI M27‐S4 broth dilution method.28
Susceptibility testing of C. albicans strains. […] Stock solutions of each agent were prepared in DMSO. Further dilutions were made in RPMI‐1640, and the final concentration of DMSO was 1 % (v/v). The final testing concentrations for all compounds ranged from 0.03–16 μg mL^−1.

C. albicans CA14 = test: MIC, CLSI M27-S4 broth dilution, strain CA14; format: cell-based, Candida albicans; settings: 48 hours
Method: Susceptibility testing of C. albicans strains. […] Stock solutions of each agent were prepared in DMSO. […] The final testing concentrations for all compounds ranged from 0.03–16 μg mL^−1.

CaCYP51 [1] = target: T1, CaCYP51 (Candida albicans, UniProt P10613); test: biochemical
T1 construct: made in house; host or cells: Escherichia coli
T1 sequence (P10613 whole entry): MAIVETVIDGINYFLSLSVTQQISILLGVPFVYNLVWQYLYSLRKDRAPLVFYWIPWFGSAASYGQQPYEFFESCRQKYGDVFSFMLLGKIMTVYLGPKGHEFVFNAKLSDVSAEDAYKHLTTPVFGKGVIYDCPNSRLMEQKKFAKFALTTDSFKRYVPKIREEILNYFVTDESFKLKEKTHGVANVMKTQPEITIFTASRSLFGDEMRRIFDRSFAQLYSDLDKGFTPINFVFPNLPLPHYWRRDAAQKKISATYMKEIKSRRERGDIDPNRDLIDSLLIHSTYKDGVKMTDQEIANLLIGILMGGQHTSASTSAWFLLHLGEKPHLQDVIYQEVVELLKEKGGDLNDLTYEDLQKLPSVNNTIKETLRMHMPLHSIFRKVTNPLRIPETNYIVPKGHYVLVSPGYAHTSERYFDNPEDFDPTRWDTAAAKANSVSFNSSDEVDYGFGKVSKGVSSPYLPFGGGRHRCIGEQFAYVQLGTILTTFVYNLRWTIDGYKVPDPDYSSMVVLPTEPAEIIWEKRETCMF
Method: […]. […] […]. CYP51 reconstitution assays. IC50 values were determined for individual azole compounds18, 30 using lanosterol as substrate. Azoles were introduced using 2.5 μL of stock solutions in DMSO. CaCYP51 assays contained 1 μM CaCYP51 and 2 μM Homo sapiens cytochrome P450 reductase (HsCPR – UniProtKB accession number P16435) and were incubated for 20 min at 37 °C. HsCYP51 assays contained 0.25 μM Δ60HsCYP51 and 1 μM HsCPR and were incubated for 10 min at 37 °C. Each IC50 experiment was performed in duplicate.

CaCYP51 [2] = target: T1, CaCYP51; test: biochemical; format: binding
Text: […]. There were no signs of compound insolubility (visible or rising background absorbance) during the ligand titrations. […] […].
The rearranged Morrison equation34 gave the best fit to the ligand saturation curves against CaCYP51 (Figure 5) indicating the selected compounds bound tightly to the purified CaCYP51 protein in free solution. Likewise the rearranged Morrison equation34 gave the best fit for binding 5 d and 5 f to Δ60HsCYP51, thus indicating tight binding in free solution (Figure 5). […].
Recombinant CYP51 protein studies. […] All azole ligand binding determinations were performed in triplicate, except the binding of compound 12 c with Δ60HsCYP51 which was performed six times. CYP51 protein samples were diluted with 0.1 M Tris⋅HCl (pH 8.1) and 25 % (w/v) glycerol to the required concentration.
(§1) Dissociation constant (K d). The K d for each CYP51‐azole complex was determined by non‐linear regression (Levenberg‐Marquardt algorithm) using a rearrangement of the Morrison equation for tight ligand binding.34 Where ligand binding was weaker, the Michaelis‐Menten equation was used to fit the data (Figure S5). K d values were determined for each of the three replicate titrations per azole compound and then mean K d values and standard deviations calculated.

Δ60HsCYP51 [3] = target: T2, Δ60HsCYP51 (Homo sapiens, UniProt Q16850); test: Azole ligand binding titration (type II difference spectra, Kd), Δ60HsCYP51
T2 sequence (Q16850 61-509, stated change not applied): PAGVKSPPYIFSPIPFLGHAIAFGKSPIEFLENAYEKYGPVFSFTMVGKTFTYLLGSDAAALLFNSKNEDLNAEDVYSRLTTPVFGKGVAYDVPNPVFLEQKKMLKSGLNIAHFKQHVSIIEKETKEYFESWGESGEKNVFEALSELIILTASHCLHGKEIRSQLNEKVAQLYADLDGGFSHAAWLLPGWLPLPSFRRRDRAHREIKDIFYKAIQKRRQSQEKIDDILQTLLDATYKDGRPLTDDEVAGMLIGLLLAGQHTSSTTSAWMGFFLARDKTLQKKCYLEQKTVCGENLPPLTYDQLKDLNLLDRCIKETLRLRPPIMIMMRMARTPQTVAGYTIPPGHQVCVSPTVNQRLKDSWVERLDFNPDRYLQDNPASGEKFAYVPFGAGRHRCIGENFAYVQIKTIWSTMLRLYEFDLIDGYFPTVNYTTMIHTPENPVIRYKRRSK
T2 sequence (P16435 2-677, stated change not applied, further chain): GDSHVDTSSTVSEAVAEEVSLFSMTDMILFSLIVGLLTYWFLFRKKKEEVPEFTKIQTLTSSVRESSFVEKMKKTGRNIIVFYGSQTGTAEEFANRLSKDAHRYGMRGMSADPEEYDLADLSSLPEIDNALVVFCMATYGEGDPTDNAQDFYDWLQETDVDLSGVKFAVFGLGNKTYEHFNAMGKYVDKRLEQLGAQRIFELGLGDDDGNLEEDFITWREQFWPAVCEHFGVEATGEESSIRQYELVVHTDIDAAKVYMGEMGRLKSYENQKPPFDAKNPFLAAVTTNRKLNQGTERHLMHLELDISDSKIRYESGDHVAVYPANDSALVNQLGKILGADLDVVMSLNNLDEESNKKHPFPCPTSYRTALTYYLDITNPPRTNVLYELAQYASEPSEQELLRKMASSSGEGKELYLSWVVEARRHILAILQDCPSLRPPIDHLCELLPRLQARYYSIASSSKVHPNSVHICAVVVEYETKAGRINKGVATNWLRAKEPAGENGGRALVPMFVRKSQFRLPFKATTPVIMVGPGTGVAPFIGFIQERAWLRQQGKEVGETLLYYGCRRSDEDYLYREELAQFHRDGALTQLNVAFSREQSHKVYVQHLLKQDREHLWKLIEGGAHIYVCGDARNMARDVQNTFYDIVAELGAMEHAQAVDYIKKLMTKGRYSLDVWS
Method: Recombinant CYP51 protein studies.
as §1

Δ60HsCYP51 [4] = target: T2, Δ60HsCYP51; test: CYP51 reconstitution assay (IC50), Δ60HsCYP51; format: biochemical
Method: CYP51 reconstitution assays. […] Azoles were introduced using 2.5 μL of stock solutions in DMSO. […] Each IC50 experiment was performed in duplicate.

[5] = 1 μM CaCYP51, lanosterol as substrate, curve-fitted, read-out: CaCYP51 IC50
[6] = 3 μM native CaCYP51, mean of three replicates ± SD, read-out: K d CaCYP51
[7] = Candida albicans, SC5314, 80 % reduction in turbidity
[8] = Candida albicans, SC5314, value in brackets
[9] = Candida albicans, CA14, 80 % reduction in turbidity
[10] = Candida albicans, CA14, value in brackets

Row | SMILES | IC50 (CaCYP51 [1]; [5]) | Kd (CaCYP51 [2]; [6]) | MIC (C. albicans SC5314; [7]) | MIC (C. albicans SC5314; [8]) | MIC (C. albicans CA14; [9]) | MIC (C. albicans CA14; [10]) | melting point | other results
1 | O=C(NCc1ccc(Cl)cc1)C(Cn1cncn1)c1ccccc1 (centres unmarked) [Compound 5 k, N‐(4‐Chlorobenzyl)‐2‐phenyl‐3‐(1H‐1,2,4‐triazol‐1‐yl)propanamide] | 4320 nM | 167 ± 17 nM |  |  |  |  |  | MIC SC5314 (C. albicans SC5314; 80 % reduction in turbidity): 8 µg/mL (≈ 23.5 µM); MIC (C. albicans SC5314; value in brackets): 23.5 µM; MIC CA14 (C. albicans CA14; 80 % reduction in turbidity): 8 µg/mL (≈ 23.5 µM); MIC (C. albicans CA14; value in brackets): 23.5 µM
2 | OC(Cn1cncn1)(Cn1cncn1)c1ccc(F)cc1F [fluconazole, reference compound] |  |  | 0.125 µg/mL | 0.41 µM | 0.125 µg/mL | 0.41 µM |  | IC50 (CaCYP51 [1]): 310 nM; Ki (CaCYP51 [1]): 30 nM; Kd (CaCYP51 [2]): 41 ± 13 nM; Type of difference binding spectra with Δ60HsCYP51 (Δ60HsCYP51 [3]; titration with Δ60HsCYP51): type II difference binding spectra
3 | C=C(C(=O)NCc1ccc(Cl)cc1Cl)c1ccc(Cl)cc1 [Compound 6 f, 2‐(4‐Chlorophenyl)‐N‐(2,4‐dichlorobenzyl)acrylamide] |  |  |  |  |  |  | 104 to 106 °C | 
4 | C=C(C(=O)NCc1ccc(Cl)cc1Cl)c1ccccc1 [Compound 6 e, N‐(2,4‐Dichlorobenzyl)‐2‐phenylacrylamide] |  |  |  |  |  |  | 66 to 68 °C | 
5 | CC[C@@H]([C@H](C)O)n1ncn(-c2ccc(N3CCN(c4ccc(OC[C@@H]5CO[C@@](Cn6cncn6)(c6ccc(F)cc6F)C5)cc4)CC3)cc2)c1=O [posaconazole, reference compound] |  | 43 ± 11 nM |  |  |  |  |  | IC50 (Δ60HsCYP51 [4]): 123000 nM; Kd (Δ60HsCYP51 [3]): 204 ± 63 nM
6 | C=C(C(=O)NCc1ccc(F)cc1)c1ccccc1 [Compound 6 b, N‐(4‐Fluorobenzyl)‐2‐phenylacrylamide] |  |  |  |  |  |  | 108 to 110 °C | 
7 | O=C(NCc1ccc(F)cc1)C(Cn1ccnc1)c1ccccc1 (centres unmarked) [Compound 5 b, N‐(4‐Fluorobenzyl)‐3‐(1H‐imidazol‐1‐yl)‐2‐phenylpropanamide] | 1410 nM | 87 ± 27 nM | 8 µg/mL | 24.7 µM | 4 µg/mL | 12.4 µM | 100 to 102 °C | 
8 | COc1ccc(CNC(=O)C(Cn2ccnc2)c2ccccc2)cc1 (centres unmarked) [Compound 5 i, 3‐(1H‐Imidazol‐1‐yl)‐N‐(4‐methoxybenzyl)‐2‐phenylpropanamide] | 910 nM | 55 ± 10 nM | 8 µg/mL | 23.9 µM | 8 µg/mL | 23.9 µM | 102 to 104 °C | 
9 | COc1ccc(CNC(=O)C(Cn2ccnc2)c2ccccc2)cc1OC (centres unmarked) [Compound 5 j, N‐(3,4‐Dimethoxybenzyl)‐3‐(1H‐imidazol‐1‐yl)‐2‐phenylpropanamide] | 6150 nM |  | > 16 µg/mL | > 43.8 µM | > 16 µg/mL | > 43.8 µM |  | 
10 | O=C(NCc1ccc(Cl)cc1Cl)C(Cn1ccnc1)c1ccccc1 (centres unmarked) [Compound 5 e, N‐(2,4‐Dichlorobenzyl)‐3‐(1H‐imidazol‐1‐yl)‐2‐phenylpropanamide] | 990 nM | 83 ± 26 nM | 1 µg/mL | 2.67 µM | 1 µg/mL | 2.67 µM | 55 to 57 °C | 
11 | C[C@@H](c1ncncc1F)[C@](O)(Cn1cncn1)c1ccc(F)cc1F [voriconazole, reference compound] |  |  |  |  |  |  |  | IC50 (Δ60HsCYP51 [4]): 78000 nM
12 | O=C(NCc1ccc(Cl)cc1)C(Cn1ccnc1)c1ccccc1 (centres unmarked) [Compound 5 c, N‐(4‐Chlorobenzyl)‐3‐(1H‐imidazol‐1‐yl)‐2‐phenylpropanamide] | 1010 nM | 60 ± 4 nM |  |  |  |  |  | MIC SC5314 (C. albicans SC5314; 80 % reduction in turbidity): 8 µg/mL (≈ 23.5 µM); MIC (C. albicans SC5314; value in brackets): 23.5 µM; MIC CA14 (C. albicans CA14; 80 % reduction in turbidity): 4 µg/mL (≈ 11.8 µM); MIC (C. albicans CA14; value in brackets): 11.8 µM
13 | C=C(C(=O)NCc1ccc(Cl)cc1)c1ccc(Cl)cc1 [Compound 6 d, N‐(4‐Chlorobenzyl)‐2‐(4‐chlorophenyl)acrylamide] |  |  |  |  |  |  | 108 to 110 °C | 
14 | O=C(NCc1ccc(C(F)(F)F)cc1)C(Cn1ccnc1)c1ccccc1 (centres unmarked) [Compound 5 h, 3‐(1H‐Imidazol‐1‐yl)‐2‐phenyl‐N‐(4‐(trifluoromethyl)benzyl)propanamide] | 2210 nM | 85 ± 19 nM | 4 µg/mL | 10.7 µM | 4 µg/mL | 10.7 µM |  | 
15 | Cc1ccc(CNC(=O)C(Cn2ccnc2)c2ccccc2)cc1 (centres unmarked) [Compound 5 g, 3‐(1H‐Imidazol‐1‐yl)‐N‐(4‐methylbenzyl)‐2‐phenylpropanamide] | 2450 nM | 144 ± 47 nM | 8 µg/mL | 25.1 µM | 8 µg/mL | 25.1 µM | 134 to 136 °C | 

More lines, main results first:

Row | IC50 (CaCYP51 [1]; [5]) | Kd (CaCYP51 [2]; [6]) | MIC (C. albicans SC5314; [7]) | MIC (C. albicans SC5314; [8]) | MIC (C. albicans CA14; [9]) | MIC (C. albicans CA14; [10]) | melting point | SMILES | other results
16 | 540 nM | 115 ± 16 nM | 4 µg/mL | 8.67 µM | 4 µg/mL | 8.67 µM | 96 to 98 °C | O=C(NCc1ccc(NS(=O)(=O)c2ccccc2)cc1)C(Cn1cncn1)c1ccccc1 (centres unmarked) [Compound 12 a, 2‐Phenyl‐N‐(4‐(phenylsulfonamido)benzyl)‐3‐(1H‐1,2,4‐triazol‐1‐yl)propanamide] | 
17 |  |  |  |  |  |  | 100 to 102 °C | C=C(C(=O)NCc1ccc(OC)cc1)c1ccccc1 [Compound 6 i, N‐(4‐Methoxybenzyl)‐2‐phenylacrylamide] | 
18 | 790 nM | 110 ± 22 nM | 8 µg/mL | 16.3 µM | 4 µg/mL | 8.14 µM |  | COc1ccc(S(=O)(=O)Nc2ccc(CNC(=O)C(Cn3cncn3)c3ccccc3)cc2)cc1 (centres unmarked) [Compound 12 d, 2‐Phenyl‐N‐(4‐(4‐methoxyphenylsulfonamido)benzyl)‐3‐(1H‐1,2,4‐triazol‐1‐yl)propanamide] | 
19 |  |  |  |  |  |  | 98 to 100 °C | C=C(C(=O)NCc1ccc(NS(=O)(=O)c2ccc(OC)cc2)cc1)c1ccccc1 [Compound 13 d, N‐(4‐((4‐Methoxyphenyl)sulfonamido)benzyl)‐2‐phenylacrylamide] | 
20 |  |  |  |  |  |  | 92 to 94 °C | C=C(C(=O)NCc1ccc(C)cc1)c1ccccc1 [Compound 6 g, N‐(4‐Methylbenzyl)‐2‐phenylacrylamide] | 
21 |  |  |  |  |  |  | 136 to 138 °C | C=C(C(=O)NCc1ccc(NC(=O)OC(C)(C)C)cc1)c1ccccc1 [Compound 6 l, tert‐Butyl (4‐((2‐phenylacrylamido)methyl)phenyl)carbamate] | 
22 |  |  |  |  |  |  | 136 to 138 °C | C=C(C(=O)NCc1ccc(NS(=O)(=O)c2ccc(F)cc2)cc1)c1ccccc1 [Compound 13 b, N‐(4‐((4‐Fluorophenyl)sulfonamido)benzyl)‐2‐phenylacrylamide] | 
23 |  |  |  |  |  |  | 88 to 90 °C | C=C(C(=O)NCc1ccc(C(F)(F)F)cc1)c1ccccc1 [Compound 6 h, 2‐Phenyl‐N‐(4‐(trifluoromethyl)benzyl)acrylamide] | 
24 | 1960 nM |  |  |  |  |  |  | Nc1ccc(CNC(=O)C(Cn2cncn2)c2ccccc2)cc1.O=C(O)C(F)(F)F (centres unmarked) [Compound 7] | MIC SC5314 (C. albicans SC5314; 80 % reduction in turbidity): > 16 µg/mL; MIC (C. albicans SC5314; value in brackets): > 36.8 µM; MIC CA14 (C. albicans CA14; 80 % reduction in turbidity): > 16 µg/mL; MIC (C. albicans CA14; value in brackets): > 36.8 µM
25 |  |  |  |  |  |  | 102 to 104 °C | C=C(C(=O)NCc1ccc(OC)c(OC)c1)c1ccccc1 [Compound 6 j, N‐(3,4‐Dimethoxybenzyl)‐2‐phenylacrylamide] | 
26 | 200 nM | 55 ± 27 nM |  |  |  |  |  | O=C(NCc1ccc(NS(=O)(=O)c2ccc(F)cc2)cc1)C(Cn1cncn1)c1ccccc1 (centres unmarked) [Compound 12 b, N‐(4‐((4‐Fluorophenyl)sulfonamido)benzyl)‐2‐phenyl‐3‐(1H‐1,2,4‐triazol‐1‐yl) propanamide] | MIC SC5314 (C. albicans SC5314; 80 % reduction in turbidity): 4 µg/mL (≈ 8.34 µM); MIC (C. albicans SC5314; value in brackets): 8.34 µM; MIC CA14 (C. albicans CA14; 80 % reduction in turbidity): 2 µg/mL (≈ 4.17 µM); MIC (C. albicans CA14; value in brackets): 4.17 µM
